Measurements from ChEMBL document CHEMBL4371067, “Discovery of N-substituted 7-azaindoles as Pan-PIM kinases inhibitors - Lead optimization - Part III” (Bioorg Med Chem Lett, 2019).
≈ marks a conversion by molar mass, not a printed value.

Key:
[1] = Permeability in human Caco2/TC7 cells at 5 uM; type: ADME, cell-based; settings: for Papp at 5 µM: Caco-2, read-out: permeability
hERG (KCNH2) [2] = molecular target: T1, hERG (KCNH2) (Homo sapiens, UniProt Q12809); experiment: Inhibition of human ERG at 10 uM relative to control
KG-1 = experiment: Antiproliferative activity against human KG1 cells; type: functional, cell-based
[3] = Clearance in human liver microsomes assessed as drug extraction at 5 uM; type: ADME, Microsome; settings: for hepatic extraction ratio at 5 µM: liver microsomes, read-out: CLH
[4] = molecular target: Serine/threonine-protein kinase PIM (Homo sapiens, UniProt P11309+Q9P1W9+Q86V86); experiment: Inhibition of PIM in human KG1 cells assessed as reduction in pS6 level; type: cell-based
[5] = molecular target: Serine/threonine-protein kinase pim-1 (Homo sapiens, UniProt P11309); experiment: Inhibition of PIM1 (unknown origin) assessed as reduction in BAD phosphorylation at Ser-112 residue by TR-FRET assay
[6] = Efflux ratio of permeability in human Caco2/TC7 cells at 5 uM; type: ADME, cell-based; settings: Caco-2
[7] = Thermodynamic solubility in pH 7.4 solution; type: physicochemical; settings: buffer, read-out: Therm_solubility
[8] = molecular target: Serine/threonine-protein kinase pim-2 (Homo sapiens, UniProt Q9P1W9); experiment: Inhibition of PIM2 (unknown origin) assessed as reduction in BAD phosphorylation at Ser-112 residue by TR-FRET assay
hERG (KCNH2) [9] = molecular target: T1, hERG (KCNH2); experiment: Inhibition of human ERG at 1 uM relative to control
[10] = Clearance in mouse liver microsomes assessed as drug extraction at 5 uM; type: ADME, Microsome
[11] = Oral bioavailability in rat at 10 mg/kg administered as single dose; type: ADME, organism-based; settings: in vivo
[12] = molecular target: Voltage-gated inwardly rectifying potassium channel KCNH2 (Homo sapiens, UniProt Q12809); experiment: Inhibition of human ERG
[13] = Cmax in rat at 10 mg/kg, po administered as single dose; type: ADME, organism-based; set-up: dose 10 mg/kg, route oral; settings: in vivo
[14] = Half life in rat at 3 mg/kg, iv administered as single dose; type: ADME, organism-based; settings: in vivo
[15] = Clearance in rat at 3 mg/kg, iv administered as single dose; type: ADME, organism-based; settings: in vivo
[16] = AUC (0 to infinity) in rat at 3 mg/kg, iv administered as single dose; type: ADME, organism-based; set-up: dose 3 mg/kg, route intravenous, time infinity; settings: in vivo
[17] = Volume of distribution at steady state in rat at 3 mg/kg, iv administered as single dose; type: ADME, organism-based; settings: in vivo, read-out: Vdss
[18] = Half life in rat at 10 mg/kg, po administered as single dose; type: ADME, organism-based; settings: in vivo
[19] = AUC (0 to infinity) in rat at 10 mg/kg, po administered as single dose; type: ADME, organism-based; set-up: dose 10 mg/kg, route oral, time infinity; settings: in vivo

Row | Papp at 5 µM [1] | hepatic extraction ratio at 5 µM [3] | EC50 [4] | IC50 [5] | IC50 [8] | SMILES | inhibition at 10 µM (hERG (KCNH2) [2]) | EC50 (KG-1; Homo sapiens, KG-1) | inhibition at 1 µM (hERG (KCNH2) [9]) | further results
1 | 0.24 ×10⁻⁶ cm/s | 0.06 | 32 nM | 1 nM | 6.1 nM | CC(O)CC#Cc1c(Cl)c2c(Cl)cc(C(N)=O)nc2n1[C@H]1CCCNC1 (stereo partly specified) | 23% | 48 nM | 13% | Ki [5]: 0.6 nM; efflux ratio at 5 µM [6]: 53; solubility thermodynamic [7]: 760 µM (≈ 300 µg/mL)
2 |  |  | 95 nM | 2.3 nM | 6 nM | NC(=O)c1cc(Cl)c2c(Cl)c(C#CC3COCCO3)n([C@H]3CCCNC3)c2n1 (stereo in doubt; 22b) | 86% |  | 20% | CLH ([10]; microsomes, 5 µM): 4%; permeability ([1]; caco2/tc7, 5 µM, 5 µM): 9 ×10⁻⁷ cm/s; EC50 (KG-1; kg-1): 203 nM; CLH ([3]; microsomes, 5 µM): 10%
3 | 3.4 ×10⁻⁶ cm/s | 0.07 | 53 nM | 1.5 nM | 10.2 nM | NC(=O)c1cc(Cl)c2c(Cl)c(C#CC3CCOCC3)n([C@H]3CCCNC3)c2n1 |  | 69 nM |  | bioavailability [11]: 67%; hepatic extraction ratio at 5 µM ([10]; liver microsomes, read-out: CLH): 0.13; IC50 [12]: 1700 nM; Cmax [13]: 91 ng/mL; half-life [14]: 7.41 h; clearance [15]: 102 mL/min/kg; AUC(0-inf) [16]: 440 ng·h/mL; Vd [17]: 63 L/kg; half-life [18]: 10.2 h; AUC(0-inf) [19]: 979 ng·h/mL
